The record followed here is the NIST ThermoML archive (doi:10.1016/j.fluid.2016.07.018).

± gives the expanded uncertainty stated by the source.

For this series the following is noted: Liquid.
Where [1] appears, read: 313.15 K, gas saturation method.
The mark [2] stands for this setting: 333.15 K, gas saturation method.
The mark [3] stands for this setting: 353.15 K, gas saturation method.
[4] abbreviates: 373.15 K, gas saturation method.
Setting [5] is: 393.15 K, gas saturation method.
The mark [6] stands for this setting: 423.15 K, gas saturation method.

By vapor or sublimation pressure is commonly meant the equilibrium pressure above the liquid or solid. `CCCCOC(=O)c1ccccc1C(=O)OCCCC` [dibutyl phthalate]: the “vapor or sublimation pressure” value is, setting by setting: under setting [1], 2.4e-05 ± 2e-06 kPa; under setting [2], 0.000195 ± 1.5e-05 kPa; under setting [3], 0.001289 ± 0.0001 kPa; under setting [4], 0.006211 ± 0.00057 kPa; (381.51 K, Closed cell (Static) method) 0.0127 ± 0.0007 kPa; (391.7 K, Closed cell (Static) method) 0.0248 ± 0.0009 kPa. The “vapor or sublimation pressure” value under setting [5] came out at 0.02452 ± 0.0019 kPa; the “vapor or sublimation pressure” value (401.69 K, Closed cell (Static) method) is given as 0.0461 ± 0.0013 kPa; the “vapor or sublimation pressure” value (411.58 K, Closed cell (Static) method) came to 0.0824 ± 0.0021 kPa; the “vapor or sublimation pressure” value (421.43 K, Closed cell (Static) method) is reported as 0.1441 ± 0.0028 kPa; the “vapor or sublimation pressure” value under setting [6] was 0.151 ± 0.012 kPa.

For `CC(C)COC(=O)c1ccccc1C(=O)OCC(C)C` [diisobutyl 1,2-benzenedioate], the “vapor or sublimation pressure” value was determined as 4.1e-05 ± 3e-06 kPa under setting [1]; 0.000436 ± 4.3e-05 kPa under setting [2]; 0.002796 ± 0.00025 kPa under setting [3]; 0.01285 ± 0.001 kPa under setting [4]; 0.0445 ± 0.0035 kPa under setting [5]; 0.2156 ± 0.017 kPa under setting [6].
